Reference: the NIST ThermoML archive (doi:10.1016/j.fluid.2006.01.030)

Test: xn = mol fraction of the nth substance listed
Settings: Liquid

CCCCCCC [heptane] + CCO
viscosity [mPa·s]
Settings | x2 = 0 | x2 = 0.125 | x2 = 0.25 | x2 = 0.375 | x2 = 0.5 | x2 = 0.625 | x2 = 0.75 | x2 = 0.875
293.15 K, 100 kPa, Capillary tube (Ostwald / Ubbelohde) method | 0.41 | 0.419 | 0.45 | 0.494 | 0.556 | 0.644 | 0.757 | 0.931
293.15 K, 20000 kPa, Falling or rolling sphere viscometry | 0.509 | 0.518 | 0.547 | 0.597 | 0.668 | 0.76 | 0.885 | 1.052
293.15 K, 40000 kPa, Falling or rolling sphere viscometry | 0.604 | 0.614 | 0.648 | 0.707 | 0.787 | 0.888 | 1.023 | 1.2
293.15 K, 60000 kPa, Falling or rolling sphere viscometry | 0.706 | 0.718 | 0.757 | 0.824 | 0.913 | 1.022 | 1.168 | 1.354
293.15 K, 80000 kPa, Falling or rolling sphere viscometry | 0.817 | 0.832 | 0.875 | 0.951 | 1.047 | 1.162 | 1.316 | 1.509
293.15 K, 100000 kPa, Falling or rolling sphere viscometry | 0.937 | 0.953 | 1.003 | 1.087 | 1.191 | 1.312 | 1.473 | 1.674
313.15 K, 100 kPa, Capillary tube (Ostwald / Ubbelohde) method | 0.333 | 0.336 | 0.354 | 0.383 | 0.421 | 0.475 | 0.55 | 0.66
313.15 K, 20000 kPa, Falling or rolling sphere viscometry | 0.408 | 0.413 | 0.429 | 0.464 | 0.508 | 0.567 | 0.65 | 0.766
313.15 K, 40000 kPa, Falling or rolling sphere viscometry | 0.487 | 0.495 | 0.513 | 0.553 | 0.602 | 0.666 | 0.756 | 0.877
313.15 K, 60000 kPa, Falling or rolling sphere viscometry | 0.57 | 0.579 | 0.599 | 0.644 | 0.699 | 0.768 | 0.864 | 0.989
313.15 K, 80000 kPa, Falling or rolling sphere viscometry | 0.658 | 0.666 | 0.69 | 0.739 | 0.8 | 0.874 | 0.974 | 1.102
313.15 K, 100000 kPa, Falling or rolling sphere viscometry | 0.751 | 0.758 | 0.786 | 0.838 | 0.906 | 0.984 | 1.088 | 1.217
333.15 K, 100 kPa, Capillary tube (Ostwald / Ubbelohde) method | 0.276 | 0.274 | 0.282 | 0.299 | 0.325 | 0.361 | 0.409 | 0.484
333.15 K, 20000 kPa, Falling or rolling sphere viscometry | 0.336 | 0.332 | 0.344 | 0.364 | 0.393 | 0.435 | 0.489 | 0.565
333.15 K, 40000 kPa, Falling or rolling sphere viscometry | 0.402 | 0.4 | 0.414 | 0.436 | 0.469 | 0.515 | 0.571 | 0.651
333.15 K, 60000 kPa, Falling or rolling sphere viscometry | 0.472 | 0.471 | 0.486 | 0.511 | 0.546 | 0.595 | 0.653 | 0.734
333.15 K, 80000 kPa, Falling or rolling sphere viscometry | 0.546 | 0.544 | 0.56 | 0.589 | 0.623 | 0.677 | 0.735 | 0.816
333.15 K, 100000 kPa, Falling or rolling sphere viscometry | 0.623 | 0.621 | 0.636 | 0.67 | 0.703 | 0.761 | 0.818 | 0.898
353.15 K, 100 kPa, Capillary tube (Ostwald / Ubbelohde) method | 0.232 | – | – | – | – | – | – | –
353.15 K, 20000 kPa, Falling or rolling sphere viscometry | 0.289 | 0.282 | 0.286 | 0.298 | 0.316 | 0.341 | 0.374 | 0.423
353.15 K, 40000 kPa, Falling or rolling sphere viscometry | 0.346 | 0.337 | 0.343 | 0.357 | 0.376 | 0.403 | 0.437 | 0.49
353.15 K, 60000 kPa, Falling or rolling sphere viscometry | 0.401 | 0.394 | 0.401 | 0.412 | 0.434 | 0.464 | 0.501 | 0.556
353.15 K, 80000 kPa, Falling or rolling sphere viscometry | 0.458 | 0.45 | 0.458 | 0.475 | 0.499 | 0.53 | 0.565 | 0.622
353.15 K, 100000 kPa, Falling or rolling sphere viscometry | 0.521 | 0.513 | 0.522 | 0.539 | 0.565 | 0.599 | 0.631 | 0.69
